In paper PMC12410356 (International Journal for Parasitology: Drugs and Drug …, 2025):

test system: E. multilocularis metacestode vesicles; experiment: Phosphoglucose isomerase (PGI) release assay (damage-marker release) on metacestode vesicles; type: cell-based, Echinococcus multilocularis; details: confirmation screen, 10 μM, triplicates, mean, 5 days

| SMILES | PGI d5 (relative PGI release) |
| --- | --- |
| COC(=O)Nc1nc2ccc([S+]([O-])c3ccccc3)cc2[nH]1 (stereo not shown) [oxfendazole, reference compound] | 5.40% |
| COC(=O)Nc1nc2ccccc2[nH]1 [carbendazim] | 5.10% |
| NS(=O)(=O)c1ccc(NC(=O)NC(c2ccccc2)c2ccccc2)cc1 [MMV1579776] | -0.15% |

same assay, conditions: confirmation screen, 10 μM, triplicates, mean, 12 days

| SMILES | PGI d12 (relative PGI release) |
| --- | --- |
| COC(=O)Nc1nc2ccc([S+]([O-])c3ccccc3)cc2[nH]1 (stereo not shown) [oxfendazole, reference compound] | 29.07% |
| COC(=O)Nc1nc2ccccc2[nH]1 [carbendazim] | 24.66% |
| NS(=O)(=O)c1ccc(NC(=O)NC(c2ccccc2)c2ccccc2)cc1 [MMV1579776] | -0.30% |

same assay, conditions: overview screen, 10 μM, singlets, 5 days, relative to 0.1 % Triton X-100, DMSO subtracted

| SMILES | PGI d5 (relative PGI release) |
| --- | --- |
| COC(=O)Nc1nc2ccc([S+]([O-])c3ccccc3)cc2[nH]1 (stereo not shown) [oxfendazole, reference compound] | -1.521% |
| COC(=O)Nc1nc2ccccc2[nH]1 [carbendazim] | 6.336% |
| Cc1c(OCC(F)(F)F)ccnc1C[S+]([O-])c1nc2ccccc2[nH]1 (stereo not shown) [MMV001438] | 1.578% |
| O=C(/C=C/n1cnc(-c2cc(C(F)(F)F)cc(C(F)(F)F)c2)n1)NNc1cnccn1 [MMV1593517] | 1.037% |
| NC1C2CC3CC(C2)CC1C3 (stereo not shown) [MMV180402] | -0.5217% |
| Nc1nc(F)nc2c1ncn2[C@@H]1O[C@H](CO)[C@@H](O)[C@@H]1O [MMV637413] | -0.694% |
| O=[N+]([O-])c1cn2c(n1)OC[C@@H](OCc1ccc(OC(F)(F)F)cc1)C2 [MMV688755] | -1.0977% |
| COc1ccc(NC(=O)c2cc3ccccn3n2)cc1 [MMV374187] | 0.2305% |
| O=C(Nc1ncc(Cc2cccc3ccccc23)s1)C1CCCCC1 [MMV1593532] | -1.117% |
| CN(Cc1ccc(C(C)(C)C)cc1)Cc1cccc2ccccc12.Cl [MMV637104] | -1.862% |
| COc1ccc(OCc2ccc(COc3c(Cl)cccc3Cl)cc2)c(Cl)c1 [MMV1580485] | -0.2661% |
| CC[C@H](CO)NCCN[C@H](CC)CO [MMV687801] | -2.724% |
| NS(=O)(=O)c1ccc(NC(=O)NC(c2ccccc2)c2ccccc2)cc1 [MMV1579776] | -0.6102% |

same assay, conditions: overview screen, 10 μM, singlets, 12 days, relative to 0.1 % Triton X-100, DMSO subtracted

| SMILES | PGI d12 (relative PGI release) |
| --- | --- |
| COC(=O)Nc1nc2ccc([S+]([O-])c3ccccc3)cc2[nH]1 (stereo not shown) [oxfendazole, reference compound] | 31.4286% |
| COC(=O)Nc1nc2ccccc2[nH]1 [carbendazim] | 74.6935% |
| Cc1c(OCC(F)(F)F)ccnc1C[S+]([O-])c1nc2ccccc2[nH]1 (stereo not shown) [MMV001438] | -2.884% |
| O=C(/C=C/n1cnc(-c2cc(C(F)(F)F)cc(C(F)(F)F)c2)n1)NNc1cnccn1 [MMV1593517] | -18.0019% |
| NC1C2CC3CC(C2)CC1C3 (stereo not shown) [MMV180402] | -14.4779% |
| Nc1nc(F)nc2c1ncn2[C@@H]1O[C@H](CO)[C@@H](O)[C@@H]1O [MMV637413] | 1.228% |
| O=[N+]([O-])c1cn2c(n1)OC[C@@H](OCc1ccc(OC(F)(F)F)cc1)C2 [MMV688755] | -12.4687% |
| COc1ccc(NC(=O)c2cc3ccccn3n2)cc1 [MMV374187] | 3.37% |
| O=C(Nc1ncc(Cc2cccc3ccccc23)s1)C1CCCCC1 [MMV1593532] | -3.615% |
| CN(Cc1ccc(C(C)(C)C)cc1)Cc1cccc2ccccc12.Cl [MMV637104] | -24.2411% |
| COc1ccc(OCc2ccc(COc3c(Cl)cccc3Cl)cc2)c(Cl)c1 [MMV1580485] | -0.7114% |
| CC[C@H](CO)NCCN[C@H](CC)CO [MMV687801] | 9.893% |
| NS(=O)(=O)c1ccc(NC(=O)NC(c2ccccc2)c2ccccc2)cc1 [MMV1579776] | 61.5508% |

test system: E. multilocularis metacestode vesicles; experiment: Metacestode vesicle viability assay (ATP, CellTiter-Glo); type: cell-based, Echinococcus multilocularis; details: 10 µM
Method: Viability was assessed after 12 days using the same metacestode vesicles as for the PGI release assay. Triton X-100 was added to each well to a final concentration of 0.1 %. Subsequently the metacestode vesicles were broken mechanically and 50 μL of the supernatant was mixed with 50 μL of CellTiter-Glo® buffer (Promega, Dübendorf, Switzerland). Measurements were performed on a HIDEX Sense microplate reader.

| SMILES | Viability d12 (relative viability) |
| --- | --- |
| O=C(/C=C/n1cnc(-c2cc(C(F)(F)F)cc(C(F)(F)F)c2)n1)NNc1cnccn1 [MMV1593517] | 95.9515% |

same assay, conditions: Echinococcus multilocularis, 288 h, confirmation screen, 10 μM, triplicates, mean, 12 days; read-out: Viability d12 (relative viability)

| SMILES | viability at 10 µM |
| --- | --- |
| COC(=O)Nc1nc2ccc([S+]([O-])c3ccccc3)cc2[nH]1 (stereo not shown) [oxfendazole, reference compound] | 30.6% |

same assay, conditions: Echinococcus multilocularis, 288 h, overview screen, 10 μM, singlets, 12 days, relative to DMSO control; read-out: Viability d12 (relative viability)

| SMILES | viability at 10 µM |
| --- | --- |
| COC(=O)Nc1nc2ccc([S+]([O-])c3ccccc3)cc2[nH]1 (stereo not shown) [oxfendazole, reference compound] | 15.1% |

same assay, conditions: Echinococcus multilocularis, 288 h, read-out: Viability d12 (relative viability), confirmation screen, 10 μM, triplicates, mean, 12 days

| SMILES | viability at 10 µM |
| --- | --- |
| COC(=O)Nc1nc2ccccc2[nH]1 [carbendazim] | 36.4% |

same assay, conditions: Echinococcus multilocularis, 288 h, read-out: Viability d12 (relative viability), overview screen, 10 μM, singlets, 12 days, relative to DMSO control

| SMILES | viability at 10 µM |
| --- | --- |
| COC(=O)Nc1nc2ccccc2[nH]1 [carbendazim] | 4.59% |

same assay, conditions: confirmation screen, 10 μM, triplicates, mean, 12 days

| SMILES | Viability d12 (relative viability) |
| --- | --- |
| NS(=O)(=O)c1ccc(NC(=O)NC(c2ccccc2)c2ccccc2)cc1 [MMV1579776] | 80.00% |

same assay, conditions: overview screen, 10 μM, singlets, 12 days, relative to DMSO control

| SMILES | Viability d12 (relative viability) |
| --- | --- |
| Cc1c(OCC(F)(F)F)ccnc1C[S+]([O-])c1nc2ccccc2[nH]1 (stereo not shown) [MMV001438] | 96.7343% |
| NC1C2CC3CC(C2)CC1C3 (stereo not shown) [MMV180402] | 111.504% |
| Nc1nc(F)nc2c1ncn2[C@@H]1O[C@H](CO)[C@@H](O)[C@@H]1O [MMV637413] | 168.919% |
| O=[N+]([O-])c1cn2c(n1)OC[C@@H](OCc1ccc(OC(F)(F)F)cc1)C2 [MMV688755] | 91.4293% |
| COc1ccc(NC(=O)c2cc3ccccn3n2)cc1 [MMV374187] | 96.2395% |
| O=C(Nc1ncc(Cc2cccc3ccccc23)s1)C1CCCCC1 [MMV1593532] | 94.209% |
| CN(Cc1ccc(C(C)(C)C)cc1)Cc1cccc2ccccc12.Cl [MMV637104] | 73.8114% |
| COc1ccc(OCc2ccc(COc3c(Cl)cccc3Cl)cc2)c(Cl)c1 [MMV1580485] | 122.098% |
| CC[C@H](CO)NCCN[C@H](CC)CO [MMV687801] | 117.919% |
| NS(=O)(=O)c1ccc(NC(=O)NC(c2ccccc2)c2ccccc2)cc1 [MMV1579776] | 8.5167% |

test system: E. multilocularis GL cells; experiment: Germinal layer cell viability assay (CellTiter-Glo); type: cell-based, Echinococcus multilocularis; details: 80 to 0.31 μM, 5 days
Method: The isolation of GL cells was conducted according to ([Kaethner et al., 2023]). Briefly, conditioned DMEM (cDMEM) was prepared prior to isolation. For the preparation of cDMEM, 1 × 10^6 RH cells and 10 × 10^6 RH cells incubated in DMEM supplemented with 10 % FBS, penicillin (100 U/mL), streptomycin (100 μg/mL) and tetracycline (5 μg/mL) for six or four days, respectively, at 37 °C under a humid, 5 % CO2 atmosphere. The supernatant of each was mixed 1:1 and sterile filtrated, resulting in cDMEM. Metacestode vesicles of at least 6 months of age were washed with PBS, incubated in distilled H2O for 2.5 min and subsequently mechanically disrupted. The resulting pellet was resuspended in 7 vol of pre-warmed 0.05 % Trypsin/0.02 % EDTA and incubated at 37 °C for 30 min. GL cells were extracted from the laminated layer by vigorous shaking followed by filtration through a 30 μm mesh (Sefar AG, Heiden, Switzerland) and separated from calcareous corpuscles by short centrifugation at 50×g for 30 s at RT. The isolated cells were centrifuged for 10 min at 600×g and RT and the pellet was resuspended in cDMEM. The cell suspension was diluted 1:100 in PBS to measure the OD600. An OD600 value of 0.1 of this dilution was defined as one arbitrary unit (AU) per μL of the undiluted cell suspension corresponding to 0.97 ± 0.11 μg of total protein for the GL cells as measured via Pierce™ bicinchoninic acid (BCA) Protein Assay Kit according to the manufacturer's protocol (Fisher Scientific AG, Reinach, Switzerland). 1′000 AU per 5 mL of cDMEM were cultured at 37 °C overnight under a humid nitrogen atmosphere. The next day, 2′000 AU of GL cells were combined and further cultured for 3 h at 37 °C under a humid nitrogen atmosphere before they were used for further experiments.
To assess effects of compounds on the cell viability of isolated E. multilocularis GL cells, the protocol was applied as previously described ([Kaethner et al., 2023]). In short, 15 AU of GL cells were distributed into each well of a black 384-well plate. Compounds dissolved in DMSO (alexidine, carbendazim, ESI-09, MMV1581545 and oxfendazole) were added to final concentrations ranging from 80 to 0.31 μM (1:2 serial dilution) and the cells were cultured for 5 days at 37 °C under a humid, microaerobic atmosphere (85 % N2, 10 % CO2, 5 % O2). DMSO with the respective concentration was used as a solvent control. Viability was measured using the CellTiter-Glo® kit. Luminescence was measured using a HIDEX Sense microplate reader. Measurements were done in quadruplicates and represented as relative viability of the DMSO controls. IC50 values were calculated in R applying the five parameter logistic model for three independent experiments ([Ritler et al., 2020]).

| SMILES | effect on GL cell viability (in words) |
| --- | --- |
| COC(=O)Nc1nc2ccc([S+]([O-])c3ccccc3)cc2[nH]1 (stereo not shown) [oxfendazole, reference compound] | not able to decrease GL cell viability |
| COC(=O)Nc1nc2ccccc2[nH]1 [carbendazim] | did not reduce GL cell viability |

same assay, conditions: 80 to 0.31 μM, 5 days; listed as Carbendazim

| SMILES | effect on GL cell viability (in words) |
| --- | --- |
| COC(=O)Nc1nc2ccccc2[nH]1 [carbendazim] | not able to decrease GL cell viability |

same assay, conditions: 80 to 0.31 μM, 5 days; listed as Oxfendazole

| SMILES | effect on GL cell viability (in words) |
| --- | --- |
| COC(=O)Nc1nc2ccc([S+]([O-])c3ccccc3)cc2[nH]1 (stereo not shown) [oxfendazole, reference compound] | did not reduce GL cell viability |
